What was measured:
chronic infarct rat = experiment: Norepinephrine-induced LV diastolic dysfunction in chronic infarct rat; type: in vivo
From the text: Male Wistar rats were used. After induction of anesthesia with 3% isoflurane inhalation, a polyethylene tube was inserted into the trachea. Respiration was subsequently controlled with an artificial ventilator with maintenance of anesthesia using 1.7% isoflurane. The chest was opened at the left third intercostals space and the pericardial membrane was incised. The left anterior descending coronary artery (LAD) was completely ligated with silk string (6.0, Ethicon) in the infarction group. Following this procedure, the chest was immediately closed, the inserted tube in the trachea was removed, and subjects returned to the breeding room after arousal.
Two months after operation, animals were again anesthetized and intubated as described above. A micronanometer-tipped pressure catheter (2F, Millar Instruments) was inserted into the right common carotid artery into the left ventricle (LV) and a polyethylene catheter (SP10) for solution injection was inserted from the right femoral vein to infuse the physiological salt solution (PSS) or test compound solutions. After confirming stable hemodynamics for 10 minutes, 20 μg/kg/min of norepinephrine was infused for 30 minutes in the chronic infarction group. The invention compound [III] (0.1 mg/kg/min) and PSS were infused for 10 minutes after 20 minutes of administration of norepinephrine at 16.6 μL/min for test and control groups, respectively. LV minimum diastolic pressure and LV end-diastolic pressure was counted every minute for 20 heart beats. The area of myocardial infarction (infarction size) in rats was estimated using the modified method of Sandmann et al (J Cardiovasc Pharmacol 2000; 37; 64-77.) for administration of the compound of the present invention and PSS. That is, the infarct size (%) was estimated using the followed formula: […]
Data is shown as means and standard error. The following results are shown in Table 4 (control) and Table 5 (the compound), respectively.

normal rat = experiment: LV diastolic function in normal rat (LV catheter, i.v. infusion); type: in vivo; conditions: 0.1 mg/kg/min i.v. infusion for 10 minutes, before administration set at 100%, mean and standard deviation
From the text: (1) After breeding for 1 week, male Wistar rats were anesthetized with 3% isoflurane inhalation, followed by an insertion of a tube in the trachea and respiration subsequently controlled with an artificial ventilator using 1.7% isoflurane for maintained anesthetization. A micrometer-tipped pressure catheter (Manufactured by 2F, Millar Instruments) was inserted from the right common carotid artery into the left ventricle (LV) and a polyethylene catheter (SP10) was inserted into the right femoral vein for the compound of the present invention or physiological salt solution (PSS) injections. After confirming stable hemodynamics for 10 minutes, LV minimum diastolic pressure and LV end-diastolic pressure was counted every minute. The compound [III] (0.1 mg/kg/min) of the present invention or PSS was infused at 16.6 μL/min for 10 minutes in the test and control groups, respectively.
LV minimum diastolic pressure and LV end-diastolic pressure was counted every minute for 20 heart beats before and after administration of the compound. […] Data is shown as mean and standard deviation.

Male Wistar rats [1] = experiment: Comparison of heart rate, LV pressure and LV diastolic function (-dP/dt) in anesthetized rats; type: in vivo, rat; conditions: for Heart rate after administration / LV diastolic function (−dP/dt) after administration / LV pressure after administration: 0.3 mg/kg/min i.v. for 5 minutes, anesthetized rats; for LV diastolic function (−dP/dt) before administration / LV pressure before administration / Heart rate before administration: baseline of the same rats before infusion; for Heart rate before administration: four rats per group
From the text: Male Wistar rats weighing 280-300 g were bred. After one week, animals were anesthetized with 3% isoflurane inhalation and respiration was subsequently controlled with an artificial ventilator using 1.7% isoflurane for maintained anesthetization. A micronanometer-tipped pressure catheter (2F, Millar Instruments) was inserted from the right common carotid artery into the left ventricle (LV) and a polyethylene catheter (SP10) for solution injection was inserted from the right femoral vein and the compounds [III] and [II] (R═H) were injected. After confirming stable hemodynamics for 10 minutes, heart rate, LV pressure, and maximal negative first derivative of LV pressure (−dP/dt) were investigated continuously. Each compound [III] or [II] was infused at 0.3 mg/kg/min for 5 minutes. Four rats in each group were evaluated. The solvent used consisted of 0.05% citric acid and 5% sorbitol. Each parameter before and after 5 minutes of administration was determined for 20 heart beats.

Male Wistar rats [2] = experiment: Norepinephrine-induced hypertension in rats, LV pressure; type: in vivo, rat; conditions: under norepinephrine 20 μg/kg/min
Procedure: Male Wistar rats weighing 260 g were anesthetized with 3% isoflurane inhalation and respiration was subsequently controlled with an artificial ventilator using 1.7% isoflurane for maintained anesthetization. A micronanometer-tipped pressure catheter (2F, Millar Instruments) was inserted from the right common carotid artery into the left ventricle (LV) and a polyethylene catheter (SP 10) for solution injection was inserted from the right femoral vein and test solutions were injected. After confirming stable hemodynamics for 10 minutes, norepinephrine (20 μg/kg/min) was infused for 10 minutes followed by the infusion of the invention compound [III] (0.1 mg/kg/min) for 10 minutes. This invention compound [III] was infused three times with intervals of 10 minutes each. LV pressure was determined for 20 heart beats before and after administration. The infusion speed of each solution was 16.6 μL/min.

[3] = Stability of the compound at room temperature; type: physicochemical; conditions: exposure to oxygen, humidity, acid and alkali at room temperature
Solubility in solvents = type: physicochemical
From the text: The compound of the present invention, 3-4-benzylpiperidin-1-yl)propionyl-7-methoxy-2,3,4,5-tetrahydro-1,4-benzothiazepine-1-oxide, which is produced by an oxidation of the hydrochloride salt represented by formula [V] by the oxidant, isolated by silica gel chromatography using chloroform-methanol as a solvent, followed by removed the solvent from the chloroform-methanol solution by azeotropic distillation, and finally removed by the residual solvent in argon. The purity of compound presented by formula [III], thus obtained is 90% or higher, and a molecular weight (mw) of the compound is 440.61. […] The compound has stereoisomers in the amide form, is confirmed to exist at the rate of about 2:3 in of amide parts using H-NMR analysis at room temperature.

[4] = system: left anterior descending coronary artery of porcine heart; experiment: Coronary relaxation of KCl-contracted porcine coronary artery strip (organ bath); conditions: Sus scrofa, read-out: concentration inducing 50% of relaxation (EC50%)
Procedure: Porcine heart was purchased without regard of gender. The heart was carried in steep, cool Krebs-Henseleit solution, filled with 95% bubbling oxygen (O2) gas and bicarbonate (CO2) and the left anterior descending coronary artery of 2.5-3 mm diameter was removed. The artery was steeped in the same nutrition solution overnight in a refrigerator and the next day a specimen from a short strip removal in the endothelium (open ring) of width 3 mm was obtained. The specimen was hanged in 10 ml of the organ bath filled with Krebs-Henseleit solution, 95% bubbling oxygen (O2) and bicarbonate (CO2) at 37° C. One side was fixed and the other side was connected to the isometric transducer (T7-8-240, T7-30-240, Olientic) and the change of tension on the amplifier was used for tension recording. After confirming the state for 120 minutes under 1.5 g loading, KCl (40 mM) was added. When the contraction reached a maximum, KCl was washed out. This wash-out was repeated 4 times during the course of 15 minutes. After the stable contraction of KCl was obtained, KCl (30 mM) dissolved in saline was added. […] The Krebs-Henseleit solution without the compounds served as the control.

[5] = chronic infarct rat, baseline before norepinephrine infusion
[6] = chronic infarct rat, norepinephrine 20 μg/kg/min infusion
[7] = chronic infarct rat under norepinephrine 20 μg/kg/min, 0.1 mg/kg/min infused 10 minutes, before administration set at 100%, mean and standard error

| Compound | Heart rate after administration (Male Wistar rats [1]) [beat/min] | LV diastolic function (−dP/dt) after administration (Male Wistar rats [1]) [mmHg/sec] | LV pressure after administration (Male Wistar rats [1]) [mmHg] | LV diastolic function (−dP/dt) before administration (Male Wistar rats [1]) [mmHg/sec] | LV pressure before administration (Male Wistar rats [1]) [mmHg] | Heart rate before administration (Male Wistar rats [1]) [beat/min] | EC50 [4] [µM] | also measured |
| --- | --- | --- | --- | --- | --- | --- | --- | --- |
| NC[C@H](O)c1ccc(O)c(O)c1 [Norepinephrine, norepinephrine] |  |  |  |  |  |  |  | LV end-diastolic pressure before administration of Norepinephrine (chronic infarct rat; [5]): 6.5 ± 0.7 mmHg; LV minimum diastolic pressure before administration of Norepinephrine (chronic infarct rat; [5]): 4.5 ± 0.8 mmHg; LV end-diastolic pressure after administration of Norepinephrine (chronic infarct rat; [6]): 25.8 ± 1.1 mmHg; LV minimum diastolic pressure after administration of Norepinephrine (chronic infarct rat; [6]): 18.5 ± 1.2 mmHg |
| COc1ccc2c(c1)CN(C(=O)CCN1CCC(Cc3ccccc3)CC1)CC[S+]2[O-] (stereo not drawn) [compound [III], 4-[3-(4-benzylpiperidin-1-yl)propionyl]-7-methoxy-2,3,4,5-tetrahydro-1,4-benzothiazepine-1-oxide] | 360.9±29.1 | −5982.6±520.1 | 106.3±5.5 | −5631.4±395.9 | 106.0±5.8 | 361.7±26.5 | 42 | LV end-diastolic pressure after administration (normal rat): 78.4 ± 6.6%; LV minimum diastolic pressure after administration (normal rat): 76.0 ± 5.2%; LV end-diastolic pressure after administration (chronic infarct rat; [7]): 78.4 ± 6.6%; LV minimum diastolic pressure after administration (chronic infarct rat; [7]): 76.0 ± 5.2%; LV pressure before administration (Male Wistar rats [2]; before compound infusion): 189.2±14.0 mmHg; LV pressure after administration (Male Wistar rats [2]; compound 0.1 mg/kg/min for 10 minutes, infused three times): 180.3±14.9 mmHg; stability [3]: stable against exposure of oxygen, humidity, acid and alkali at room temperature; solubility in solvents (Solubility in solvents): easily dissolved in ethanol and dimethysulfoxide (DMSO); skin irritation (Skin irritation): irritating to the skin |
| COc1ccc2c(c1)CN(C(=O)CCN1CCC(Cc3ccccc3)CC1)CCS2 [compound [II] (R═H), 4-[3-(4-benzylpiperidin-1-yl)propionyl]-7-methoxy-2,3,4,5-tetrahydro-1,4-benzothiazepine, reference compound] | 320.2±24.2 | −5311.0±961.4 | 100.8±6.0 | −5973.4±1121.3 | 103.7±4.2 | 370.1±18.9 |  |  |
| COc1ccc2c(c1)CN(C(=O)CCN1CCC(Cc3ccc(O)cc3)CC1)CC[S+]2[O-] (stereo not drawn) [compound [IV], 4-{3-[4-(4-hydroxybenzyl)piperadin-1-yl]propionyl}-7-methoxy-2,3,4,5-tetrahydro-1,4-benzothiazepine-1-oxide] |  |  |  |  |  |  | 100 |  |

— patent publication US9340533B2, “1,4-benzothiazepine-1-oxide derivative and pharmaceutical composition utilizing the same” (priority 2009, dated 2016)
